Experiment [1] concerns the target T1, carboxypeptidase B (Homo sapiens, UniProt P15086).
T1 sequence (P15086 111-417): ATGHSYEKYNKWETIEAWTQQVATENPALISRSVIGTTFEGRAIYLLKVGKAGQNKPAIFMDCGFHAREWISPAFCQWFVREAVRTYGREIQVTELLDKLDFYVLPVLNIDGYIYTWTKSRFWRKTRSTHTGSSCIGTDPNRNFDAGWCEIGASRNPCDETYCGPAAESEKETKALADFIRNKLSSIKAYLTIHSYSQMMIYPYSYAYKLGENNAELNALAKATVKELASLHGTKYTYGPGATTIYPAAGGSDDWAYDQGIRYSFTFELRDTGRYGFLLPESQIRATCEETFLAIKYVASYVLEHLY
Nature of the experiment: Splitting of thiaarginine and thialysine substrates by carboxypeptidase B. It counts as biochemical. As to conditions: substrate final concentration 174 μM. The procedure: The thiaarginine derivatives of the following formulas A and B [drawing 2] have been described as substrates for carboxypeptidase B (Bull. Korean. Chem. Soc. 1998, 19(2), 189-193). […] Detection of CPB by means of compound A is carried out according to the following FIG. 1. [drawing]
(§1) • measure for 10 min at RT Results: • Splitting of thiaarginine and thialysine substrates (final concentration 174 μM) by TAFIa (final concentration 17 μg/ml) • in brackets the value for carboxypeptidase B • Substances of comparison A and B from Bull. Korean. Chem. Soc. 1998, 19(2), 189-193
(§2) ΔE=Extinction variation at 405 nm

The target of experiment [2] is T2, TAFIa (Homo sapiens, UniProt Q96IY4).
T2 construct: purchased Enzyme Research Laboratory
T2 sequence (Q96IY4 115-423): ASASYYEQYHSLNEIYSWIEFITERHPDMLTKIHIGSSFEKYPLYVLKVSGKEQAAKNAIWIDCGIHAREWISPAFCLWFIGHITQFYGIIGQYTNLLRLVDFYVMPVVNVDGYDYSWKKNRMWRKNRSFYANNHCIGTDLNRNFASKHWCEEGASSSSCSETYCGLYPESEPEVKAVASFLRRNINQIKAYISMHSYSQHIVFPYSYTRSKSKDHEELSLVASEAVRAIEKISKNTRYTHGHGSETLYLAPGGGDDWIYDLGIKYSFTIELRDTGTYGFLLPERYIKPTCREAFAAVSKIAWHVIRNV
Nature of the experiment: Splitting of thiaarginine and thialysine substrates by TAFIa (DTNB chromogenic enzyme assay). It counts as biochemical. As to conditions: substrate final concentration 174 μM, TAFIa final concentration 17 μg/ml, RT, 10 min.
Description: In a first step, the substrate is hydrolyzed by TAFIa in such a way that a thioamino acid (thiaarginine or thialysine) is released. These instable intermediates are rapidly decomposed into 2-mercaptoethylguanidine or […], respectively. These mercapto compounds react with Ellman's reagent (5,5′-dithio-bis-(2-nitrobenzoic acid)), thereby releasing the strongly yellow 3-carboxy-4-nitrothiophenol that can be measured using a spectrophotometer at 405-412 nm. The free thiol content measured is directly proportional to the quantity of substrate hydrolyzed by TAFIa and thereby allows a quantitative analysis of the enzyme activity.
Enzyme assay: The enzyme activity is measured at room temperature by using a 10 mM substrate stock solution in DMSO. TAFI of human origin can be obtained in a stock solution of 360 μg/ml from Enzyme Research Laboratory or over blood plasma. Activation of TAFI to TAFIa occurred with thrombin (2.7 U/ml), the activation of which was produced with 30 μg of thrombomodulin. Excessive thrombin activity was eliminated by adding the synthetic inhibitor NAPAP. The measurement was performed on microtiter plates.
The absorption increase at 405-412 nm was recorded for 10 minutes.
in buffer (20 mM HEPES, 5 mM CaCl2, 0.01% Tween 80; pH 7.4) • incubate for 5 min at 25° C.
as §1, §2

Experimental findings from patent publication US20060068457A1, “Substrates for tafi (a)” (priority 2002, published 2006) are described below.

For the compound `Cl.NC(N)=NCCSC(NC(=O)[C@H](CCCCNC(=O)OCc1ccccc1)NC(=O)c1ccccc1)C(=O)O` (stereo partly drawn) [No. 4269, benzoyl-(L)-lysyl-(E-benzyloxycarbonyl)-α-(D, L)-(2-guanidinoethylthio)-glycine hydrochloride salt], the “ΔE/min (extinction variation at 405 nm), value in brackets for carboxypeptidase B” value (from here on “ΔE/min … for carboxypeptidase B”) in experiment [1] is given as “(0.018)”. The “ΔE/min (extinction variation at 405 nm), splitting by TAFIa” value (“ΔE/min … by TAFIa” for short) in experiment [2] worked out at 0.108.
For the compound `NCCCSC(NC(=O)[C@H](CCCCNC(=O)OCc1ccccc1)NC(=O)c1ccccc1)C(=O)O.O=C(O)C(F)(F)F` (stereo partly drawn) [No. 4339, benzoyl-(L)-lysyl-(F-benzyloxycarbonyl)-α-(D,L)-(3-aminopropylthio)-glycine trifluoracetic acid salt], the “ΔE/min … by TAFIa” value in experiment [2] is reported as 0.055.
As to Boc-F-K(Boc)-G(GUS)-OH × HCl [No. 4298], the “ΔE/min … for carboxypeptidase B” value in experiment [1] was “(0.034)”. In experiment [2], the “ΔE/min … by TAFIa” value is listed as 0.043.
The corresponding values for Boc-K(Tos)-G(GUS)-OH × HCl [No. 4273] are “(0.048)” and 0.014.
On the same counts, the results for Boc-K(Z)-G(GUS)-OH × TFA [No. 4275] are “(0.028)” and 0.041.
On to Boc-K(Z)-G(α-SPrA)-OH × TFA [No. 4341], for which the “ΔE/min … by TAFIa” value in experiment [2] is on record as 0.054.
Regarding Bz-P-K(Boc)-G(GUS)-OH × TFA [No. 4300], the “ΔE/min … for carboxypeptidase B” value in experiment [1] is recorded as “(0.072)”. For the same compound, in experiment [2], the “ΔE/min … by TAFIa” value worked out at 0.012.
Turning to Bz-V-G(GUS)-OH × TFA [No. 4334], the “ΔE/min … by TAFIa” value in experiment [2] is given as 0.034.
On the same count and under the same terms, in the case of Bz-V-G(α-SPrA)-OH × TFA [No. 4336] it was 0.053.
On to Z-A-K(Boc)-G(GUS)-OH × HCl [No. 4302], for which the “ΔE/min … for carboxypeptidase B” value in experiment [1] is given as “(0.059)”. Moreover, the “ΔE/min … by TAFIa” value in experiment [2] is 0.042.
